ChEMBL document CHEMBL6114964, “Discovery of novel spirocyclic derivates as potent androgen receptor antagonists” (Bioorg Med Chem, 2025)

Columns and labels:
CWR22R = test: cells; assay type: functional, cell-based; conditions: Homo sapiens, 22Rv1, 168 h
Description: Antiproliferative activity against human 22Rv1 cells assessed as inhibition of cell viability incubated for 7 days by Celltiter-Glo assay

cells = assay type: functional, cell-based; conditions: Homo sapiens, LNCaP-EnzR, 168 h
Description: Antiproliferative activity against human LNCaP-EnzR cells assessed as inhibition of cell viability incubated for 7 days by Celltiter-Glo assay

LNCaP = test: cells; assay type: functional, cell-based; conditions: Homo sapiens, 168 h
Description: Antiproliferative activity against human LNCaP cells incubated for 7 days in presence of R1881 by Celltiter-Glo assay

Androgen receptor [1] = target: T1, Androgen receptor (Homo sapiens, UniProt P10275); assay type: cell-based, HEK293
T1 sequence (P10275 whole entry): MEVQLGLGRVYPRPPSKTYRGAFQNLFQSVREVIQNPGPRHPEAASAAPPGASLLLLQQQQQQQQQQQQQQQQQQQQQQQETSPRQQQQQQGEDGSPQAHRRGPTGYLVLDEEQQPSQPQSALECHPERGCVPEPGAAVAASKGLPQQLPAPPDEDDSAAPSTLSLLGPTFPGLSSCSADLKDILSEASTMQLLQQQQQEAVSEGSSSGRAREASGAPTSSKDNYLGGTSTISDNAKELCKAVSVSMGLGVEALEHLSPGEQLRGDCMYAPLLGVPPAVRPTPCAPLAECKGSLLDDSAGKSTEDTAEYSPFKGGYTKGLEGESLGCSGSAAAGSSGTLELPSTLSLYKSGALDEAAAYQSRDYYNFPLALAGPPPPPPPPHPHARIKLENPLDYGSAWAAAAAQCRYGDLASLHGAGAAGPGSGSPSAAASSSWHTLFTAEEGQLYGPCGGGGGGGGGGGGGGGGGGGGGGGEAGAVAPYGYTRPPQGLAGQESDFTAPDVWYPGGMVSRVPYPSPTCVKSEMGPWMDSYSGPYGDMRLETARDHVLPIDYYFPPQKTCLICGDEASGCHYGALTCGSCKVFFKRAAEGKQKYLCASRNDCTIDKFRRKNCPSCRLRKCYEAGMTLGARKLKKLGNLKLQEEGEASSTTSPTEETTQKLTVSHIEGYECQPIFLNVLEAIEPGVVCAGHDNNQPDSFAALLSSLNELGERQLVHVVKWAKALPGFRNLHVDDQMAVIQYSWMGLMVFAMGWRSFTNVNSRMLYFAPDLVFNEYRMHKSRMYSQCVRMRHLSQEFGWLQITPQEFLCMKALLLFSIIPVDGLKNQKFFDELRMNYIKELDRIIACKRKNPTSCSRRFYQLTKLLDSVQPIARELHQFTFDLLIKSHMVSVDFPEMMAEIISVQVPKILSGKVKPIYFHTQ

Androgen receptor [2] = target: Androgen receptor (Homo sapiens, UniProt P10275, F877L); assay type: cell-based, HEK293
in vitro [3] = conditions: mouse, microsomes
Description: Metabolic stability in mouse liver microsomes assessed as parent compound remaining at 1 uM measured after 60 mins in presence of NADPH by LC-MS/MS analysis

in vitro [4] = conditions: human, microsomes
in vitro [5] = conditions: human, microsomes; remark: listed apart in the source
in vitro [6] = conditions: human, microsomes; remark: listed apart in the source
Description: Metabolic stability in human liver microsomes assessed as parent compound remaining at 1 uM measured after 60 mins in presence of NADPH by LC-MS/MS analysis

Androgen receptor [7] = target: Androgen receptor (Homo sapiens, UniProt P10275, W742L); assay type: cell-based, HEK293
[8] = mouse, microsomes, 1 h, 1 µM

Row | SMILES | IC50 (LNCaP) | IC50 (Androgen receptor [1]) | other results
1 | C[C@](O)(Cn1ccc2cc(F)ccc21)C(=O)Nc1ccc(C#N)c(C(F)(F)F)c1 |  |  | IC50 (CWR22R): 9980 nM; IC50 (cells): 10900 nM
2 | N#Cc1ccc(N2CCC3(CC(NC(=O)c4ccc(C(=O)O)cc4)C3)C2)cc1C(F)(F)F (centres undefined) | > 50000 nM |  | 
3 | CC(O)c1cc(C(=O)NC2CC3(CCN(c4ccc(C#N)c(C(F)(F)F)c4)C3)C2)n[nH]1 (centres undefined) | > 100000 nM |  | 
4 | N#Cc1ccc(N2CCC3(CC(NC(=O)c4ccc([N+](=O)[O-])cc4)C3)C2)cc1C(F)(F)F (centres undefined) | 3280 nM |  | 
5 | N#Cc1ccc(N2CCC3(CC(NC(=O)c4ccccc4)C3)C2)cc1C(F)(F)F (centres undefined) |  | 43.7 nM | 
6 | CNC(=O)c1ccc(C(=O)NC2CC3(CCN(c4ccc(C#N)c(C(F)(F)F)c4)C3)C2)cc1F (centres undefined) | 2260 nM | 26.3 nM | 
7 | N#Cc1ccc(NC(=O)C2CC3(CCN(c4ccc(C#N)c(C(F)(F)F)c4)C3)C2)cc1 (centres undefined) | 4370 nM |  | 
8 | N#Cc1ccc(N2CCC3(CC(NC(=O)c4ccc(CO)cc4)C3)C2)cc1C(F)(F)F (centres undefined) | 1990 nM | 37.8 nM | 
9 | N#Cc1ccc(-c2ccc(C(=O)NC3CC4(CCN(c5ccc(C#N)c(C(F)(F)F)c5)C4)C3)cc2)cc1F (centres undefined) | 190 nM |  | IC50 (Androgen receptor [2]): > 10000 nM; remaining at 1 h, 1 µM (in vitro [3]): 100%; half-life at 1 h, 1 µM (in vitro [4]): 2.57 h; IC50 (CWR22R): > 50000 nM; IC50 (cells): 1190 nM; microsomal CLint at 1 h, 1 µM (in vitro [5]): 9 µL/min/mg; remaining at 1 h, 1 µM (in vitro [6]): 76.8%; IC50 (Androgen receptor [7]): 116 nM
10 | Cc1ccc(C(=O)NC2CC3(CCN(c4ccc(C#N)c(C(F)(F)F)c4)C3)C2)cn1 (centres undefined) | 2570 nM | 33.2 nM | 
11 | Cc1ccc(C(=O)NC2CC3(CCN(c4ccc(C#N)c(C(F)(F)F)c4)C3)C2)cc1 (centres undefined) | 1260 nM |  | 
12 | N#Cc1ccc(CN2CC3(CCN(c4ccc(C#N)c(C(F)(F)F)c4)C3)C2)cc1 |  | 313 nM | 
13 | N#Cc1ccc(-c2ccc(C(=O)NC3CC4(CCN(c5ccc(C#N)c(C(F)(F)F)c5)C4)C3)cc2)cc1 (centres undefined) | 80 nM | 29.8 nM | IC50 (CWR22R): > 50000 nM; IC50 (cells): 1140 nM; IC50 (Androgen receptor [7]): 160 nM
14 | COc1ccc(C(=O)NC2CC3(CCN(c4ccc(C#N)c(C(F)(F)F)c4)C3)C2)cc1 (centres undefined) | 920 nM | 25.1 nM | 
15 | CN1CCN(c2ccc(C(=O)NC3CC4(CCN(c5ccc(C#N)c(C(F)(F)F)c5)C4)C3)cc2)CC1 (centres undefined) | 3570 nM | 24.6 nM | 
16 | COC(=O)c1ccc(C(=O)NC2CC3(CCN(c4ccc(C#N)c(C(F)(F)F)c4)C3)C2)cc1 (centres undefined) | 6460 nM |  | 
17 | C[C@](O)(CN1CCN(c2ccc(-c3ccc(C#N)c(F)c3)cc2)CC1)C(=O)Nc1ccc(C#N)c(C(F)(F)F)c1 |  |  | remaining at 1 h, 1 µM (in vitro [3]): 12.2%; half-life at 1 h, 1 µM (in vitro [4]): 0.0825 h; CLH [8]: 282 µL/min; IC50 (CWR22R): 2340 nM; IC50 (cells): 3290 nM; microsomal CLint at 1 h, 1 µM (in vitro [5]): 252 µL/min/mg; remaining at 1 h, 1 µM (in vitro [6]): 0.74%
18 | N#Cc1ccc(N2CCC3(CC(NC(=O)c4ccc(-c5ccc(OCCO)cc5)cc4)C3)C2)cc1C(F)(F)F (centres undefined) | 650 nM |  | 
19 | N#Cc1ccc(N2CCC3(CC(NC(=O)c4ccc(F)cc4)C3)C2)cc1C(F)(F)F (centres undefined) | 2230 nM |  | 
20 | CC(O)c1cc(C(=O)N[C@@H](C)Cn2ccc(-c3ccc(C#N)c(Cl)c3)n2)n[nH]1 (some centres undefined) [DAROLUTAMIDE] |  |  | IC50 (cells): 31200 nM
